{"source": "patent US6987101B1", "about": "“Therapeutic gestagens for the treatment of premenstrual dysphoric disorder” (Schering Aktiengesellschaft, priority 1996, dated 2006)", "test_system": "premenstrual dysphoric disorder (PMDD) symptoms", "experiment": "Oral treatment of women classified as PMDD patients over 4 to 6 cycles, re-evaluation of symptom criteria 1 to 11", "type": "in vivo, fertile women", "conditions": "3 mg drospirenone together with 30 μg ethinylestradiol orally daily, day 1 to day 21 of the cycle, then 7 pill-free or placebo days; evaluated after 4 to 6 cycles; all of the women treated", "text": "In the prospective evaluation by recording the symptoms of the patient over 2 or 3 menstrual cycles, 5 (or more) of the symptoms that are listed below occur during the last week of the luteal phase, but no longer occur postmenstrually. At least one of the symptoms must be the first, second, third or fourth symptom below. • 1. Noticeably stressed mental state, feelings of hopelessness or self-doubt • 2. Noticeable feeling of anxiety, tension, feeling of “being on the edge” • 3. Noticeable emotional tendencies (e.g., suddenly feeling sad or fretful or increased sensitivity to rejection) • 4. Lasting and noticeable feelings of unease or irritability or increased interpersonal conflicts • 5. Decreasing interest in conventional activities (e.g., work, school, friends, hobbies) • 6. Subjective sensation of concentration difficulties • 7. Lethargy, slight exhaustion or noticeable lack of energy • 8. Noticeable change in appetite, overeating or special food cravings • 9. […]\nFertile women, who were classified according to the above-indicated criteria 1. to 11. as PMDD patients, are treated orally over at least 4 cycles, in each case from day 1 to day 21 of the cycle daily, with an amount of 3 mg of drospirenone together with 30 μg of ethinylestradiol. […] After a treatment over 4 to 6 cycles, the symptoms that fall into the category criteria 1. to 11. are carefully evaluated again.", "data": [{"compound": "C[C@]12CCC(=O)C=C1[C@@H]1C[C@@H]1[C@H]1[C@@H]3[C@@H]4C[C@@H]4[C@@]4(CCC(=O)O4)[C@@]3(C)CC[C@@H]12", "note": "[drospirenone]", "values": [{"measurement": "improvement relative to at least one of the PMDD symptoms that occurred before the beginning of the treatment (not only the 11th symptom)", "result": "significant improvement"}]}]}
